Data: patent publication US7265120B2, “Pyrazine derivatives and pharmaceutical use thereof” (Astellas Pharma Inc., priority 2004, dated 2007)

Row | melting point | SMILES
1 | 240 to 243 °C | CC(C)n1nc(-c2nc(C(N)=O)c(N)nc2-c2ccccc2Br)ccc1=O [Example 192, 3-amino-5-(2-bromophenyl)-6-(1-isopropyl-6-oxo-1,6-dihydro-3-pyridazinyl)-2-pyrazinecarboxamide]
2 | 183 to 185 °C | CC(C)n1nc(-c2nc(N3CCCCC3)c(N)nc2-c2ccccc2)ccc1=O [Example 108, 6-[5-amino-3-phenyl-6-(1-piperidinyl)-2-pyrazinyl]-2-isopropyl-3(2H)-pyridazinone]
3 | 148 to 150.5 °C | CC(C)n1nc(-c2nc(OC3CCN(Cc4ccccc4)CC3)c(N)nc2-c2ccccc2)ccc1=O [Example 178, 6-{5-amino-6-[(1-benzyl-4-piperidinyl)oxy]-3-phenyl-2-pyrazinyl}-2-isopropyl-3(2H)-pyridazinone]
4 | 220 to 221.5 °C | Cn1nc(-c2nc(-c3ccccc3)c(N)nc2-c2ccccc2)ccc1=O [Example 85, 6-(5-amino-3,6-diphenyl-2-pyrazinyl)-2-methyl-3(2H)-pyridazinone]
5 | 224 to 226 °C | CC(C)n1nc(-c2nc(C(N)=O)c(N)nc2-c2ccccc2)ccc1=O [Example 7, 3-amino-6-(1-isopropyl-6-oxo-1,6-dihydro-3-pyridazinyl)-5-phenyl-2-pyrazinecarboxamide]
6 | 227 to 229 °C | CCn1nc(-c2ncc(N)nc2-c2ccccc2)ccc1=O [Example 59, 6-(5-amino-3-phenyl-2-pyrazinyl)-2-ethyl-3(2H)-pyridazinone]
7 | 191 to 194 °C | Cn1nc(-c2nc(NC3CCN(Cc4ccccc4)CC3)c(N)nc2-c2ccccc2)ccc1=O [Example 129, 6-{5-amino-6-[(1-benzyl-4-piperidinyl)amino]-3-phenyl-2-pyrazinyl}-2-methyl-3(2H)-pyridazinone]
8 | 216.5 to 217 °C | COc1ccc(CNc2nc(-c3ccccc3)c(-c3ccc(=O)n(C(C)C)n3)nc2C(=O)O)cc1 [Example 46, 6-(1-isopropyl-6-oxo-1,6-dihydro-3-pyridazinyl)-3-[(4-methoxybenzyl)amino]-5-phenyl-2-pyrazinecarboxylic acid]
9 | 229 to 231 °C | Cn1nc(-c2nc(Oc3ccc(F)cc3)c(N)nc2-c2ccccc2)ccc1=O [Example 186, 6-[5-amino-6-(4-fluorophenoxy)-3-phenyl-2-pyrazinyl]-2-methyl-3(2H)-pyridazinone]
10 | 249 to 252 °C | Cn1nc(-c2nc(NCc3ccco3)c(N)nc2-c2ccccc2)ccc1=O [Example 124, 6-{5-amino-6-[(2-furylmethyl)amino]-3-phenyl-2-pyrazinyl}-2-methyl-3(2H)-pyridazinone]
11 | 207 to 209 °C | COc1ccc(CN(Cc2ccc(OC)cc2)c2nc(-c3ccccc3)c(-c3ccc(=O)n(C(C)C)n3)nc2C#N)cc1 [Example 51, 3-[bis(4-methoxybenzyl)amino]-6-(1-isopropyl-6-oxo-1,6-dihydro-3-pyridazinyl)-5-phenyl-2-pyrazinecarbonitrile]
12 | > 250 °C | Cn1nc(-c2nc(-n3cncn3)c(N)nc2-c2ccccc2)ccc1=O [Example 155, 6-[5-amino-3-phenyl-6-(1H-1,2,4-triazol-1-yl)-2-pyrazinyl]-2-methyl-3(2H)-pyridazinone]
13 | > 250 °C | CC(C)n1nc(-c2nc(-c3cn[nH]c3)c(N)nc2-c2ccccc2)ccc1=O [Example 90, 6-[5-amino-3-phenyl-6-(1H-pyrazol-4-yl)-2-pyrazinyl]-2-isopropyl-3(2H)-pyridazinone]
14 | 120 to 122.5 °C | COc1ccc(CN(Cc2ccc(OC)cc2)c2nc(-c3ccccc3)c(-c3ccc(=O)n(C(C)C)n3)nc2C(N)=O)cc1 [Example 52, 3-[bis(4-methoxybenzyl)amino]-6-(1-isopropyl-6-oxo-1,6-dihydro-3-pyridazinyl)-5-phenyl-2-pyrazinecarboxamide]
15 | 214 to 217 °C | CC(C)n1nc(-c2nc(N)cnc2-c2ccccc2)ccc1=O [Example 50, 6-(6-amino-3-phenyl-2-pyrazinyl)-2-isopropyl-3(2H)-pyridazinone]
16 | 76 to 78 °C | COc1ccc(CNc2nc(-c3ccccc3Br)c(-c3ccc(=O)n(C(C)C)n3)nc2C#N)cc1 [Example 196, 5-(2-bromophenyl)-6-(1-isopropyl-6-oxo-1,6-dihydro-3-pyridazinyl)-3-[(4-methoxybenzyl)amino]-2-pyrazinecarbonitrile]
17 | 231 to 233 °C | Cn1nc(-c2nc(S(C)(=O)=O)c(N)nc2-c2ccccc2)ccc1=O [Example 62, 6-[5-amino-6-(methylsulfonyl)-3-phenyl-2-pyrazinyl]-2-methyl-3(2H)-pyridazinone]
18 | 185 to 187 °C | Cn1nc(-c2nc(OCc3ccccc3)c(N)nc2-c2ccccc2)ccc1=O [Example 182, 6-[5-amino-6-(benzyloxy)-3-phenyl-2-pyrazinyl]-2-methyl-3(2H)-pyridazinone]
19 | 204.5 to 207 °C | CC(C)n1nc(-c2nc(NCCN3CCCCC3)c(N)nc2-c2ccccc2)ccc1=O [Example 103, 6-(5-amino-3-phenyl-6-{[2-(1-piperidinyl)ethyl]amino}-2-pyrazinyl)-2-isopropyl-3(2H)-pyridazinone]
20 | 204 to 206 °C | CC(C)n1nc(-c2ncc(N)nc2-c2ccccc2)ccc1=O [Example 9, 6-(5-amino-3-phenyl-2-pyrazinyl)-2-isopropyl-3(2H)-pyridazinone]
21 | 138 to 140 °C | COc1ccc(CNc2cnc(-c3ccc(=O)n(C(C)C)n3)c(-c3ccccc3)n2)cc1 [Example 49, 2-isopropyl-6-{5-[(4-methoxybenzyl)amino]-3-phenyl-2-pyrazinyl}-3(2H)-pyridazinone]
22 | 226 to 229 °C | Cn1nc(-c2nc(NCCN3CCOCC3)c(N)nc2-c2ccccc2)ccc1=O [Example 122, 6-(5-amino-6-{[2-(4-morpholinyl)ethyl]amino}-3-phenyl-2-pyrazinyl)-2-methyl-3(2H)-pyridazinone]
23 | 213 to 215 °C | CC(C)n1nc(-c2nc(C#C[Si](C)(C)C)c(N)nc2-c2ccccc2)ccc1=O
24 | > 250 °C | Cn1nc(-c2nc(NCc3ccccc3)c(N)nc2-c2ccccc2)ccc1=O [Example 144, 6-[5-amino-6-(benzylamino)-3-phenyl-2-pyrazinyl]-2-methyl-3(2H)-pyridazinone]
25 | 181 to 183.5 °C | CC(C)n1nc(-c2nc(NCc3ccccc3)c(N)nc2-c2ccccc2)ccc1=O [Example 96, 6-[5-amino-6-(benzylamino)-3-phenyl-2-pyrazinyl]-2-isopropyl-3(2H)-pyridazinone]
26 | 147 to 149 °C | CC(=O)NCCNc1nc(-c2ccc(=O)n(C(C)C)n2)c(-c2ccccc2)nc1N [Example 133, N-(2-{[3-amino-6-(1-isopropyl-6-oxo-1,6-dihydro-3-pyridazinyl)-5-phenyl-2-pyrazinyl]amino}ethyl)acetamide]

Row | SMILES | melting point
27 | CC(C)n1nc(-c2nc(OCCCCOCc3ccccc3)c(N)nc2-c2ccccc2)ccc1=O [Example 169, 6-{5-amino-6-[4-(benzyloxy)butoxy]-3-phenyl-2-pyrazinyl}-2-isopropyl-3(2H)-pyridazinone] | 96.5 to 97.5 °C
28 | CCCCOc1nc(-c2ccc(=O)n(C(C)C)n2)c(-c2ccccc2)nc1N [Example 165, 6-(5-amino-6-butoxy-3-phenyl-2-pyrazinyl)-2-isopropyl-3(2H)-pyridazinone] | 130 to 131.5 °C
